Columns and labels:
[1] = tested on: H446 SCLC cells; experiment: Cell growth inhibition assay, H446 SCLC cells; assay type: cell-based; conditions: Homo sapiens, NCI-H446, 504 h; H446 cell line, 21 days of treatment; read-out: inhibition of cell proliferation, mean IC50
Procedure: COR-L88 (92031917) cells were purchased from ECACC. […] No. 1565565).
H841, H446 and H69 cells were plated in their recommended complete culture medium described above (1 mL/well) in triplicate 12 well plates for each cell line at a density of 100,000 cells per well. Plates were incubated overnight at 37° C. and 5% CO2. Compound 1 stock was prepared at 50 mM in DMSO and was dispensed to several single-use aliquots and stored at −20° C. To prepare the compound plate, Compound 1 was diluted to 3 mM in DMSO and then 3-fold serial dilution were made in DMSO (10 doses in total). […] On Day 21, cell morphology was observed under microscope and any morphology changes upon compound treatment were recorded. […] Cell viability was measured using according to manufacturer's instructions.
Based on the strong activity observed with Compound 1 in DMS114 cells (see example 1 above), the antiproliferative activity of Compound 1 was also tested in 3 additional SCLC cell lines, namely H841, H446 and H69 using the cell proliferation assay described above. Each cell line was treated with different concentrations of Compound 1 using a 10-point dose curve (1:3 dilution in DMSO) with 3 μM to 0.1 nM for 21 days and then assessed for cell viability. […]

[2] = tested on: H3K27Me3 in DMS114 tumors; experiment: H3K27Me3 ELISA on histones of DMS114 xenograft tumors; assay type: in vivo, female NOD/SCID mice; conditions: Mus musculus, DMS-114, 1320 h; 300 mg/kg BID, tumors harvested at Day 55; read-out: maximum inhibition of H3K27Me3 in tumor samples
Procedure: (§1) Extracts were aliquoted and stored at −20° C. (short term) or −80° C. (long term). […] Data was analyzed using GraphPad Prism version 7.02.
(§2) The in vivo activity of Compound 1 against EZH2 in the DMS114 SCLC xenograft model was determined by measurement of the relative amount of cellular H3K27Me3 and Me2 levels with ELISA using the tumor tissue samples harvested at Day 55 from the study described in Example 3 above.

[3] = tested on: H3K27Me2 in DMS114 tumors; experiment: H3K27Me2 ELISA on histones of DMS114 xenograft tumors; assay type: in vivo, female NOD/SCID mice; conditions: Mus musculus, DMS-114, 1320 h; 300 mg/kg BID, tumors harvested at Day 55; read-out: maximum inhibition of H3K27Me2 in tumor samples
Procedure: as §1, §2

[4] = tested on: SLFN11 expression in SCLC cell lines; experiment: SLFN11 western blotting; assay type: cell-based; conditions: 500 nM for 7 days, several SCLC cell lines
Procedure: SCLC cell lines were treated with 500 nM of Compound 1 in DMSO for 7 days and changes in SLFN11 protein levels were then assessed using western blotting. After drug treatment, cells were trypsized (adherent cells), harvested by centrifugation at 2000 rpm at room temperature, washed with PBS, followed by collection of cell pellets by centrifugation. Cell pellets were re-suspended in appropriate volume of RIPA buffer (Sigma; Catalogue #R0278; 100 ul per 5-10×10^5 cells), incubated on ice for 10-15 min, centrifuged at 12,000 g and 4° C. for 10 min and then supernatant was collected. 15 ug of total protein lysates was run on 4-12% NuPAGE™ Bis-Tris protein gel (NP0336Box) in 1×NuPAGE™ MOPS SDS Running Buffer (NP0001). Gels were run on ice at 80V for 20 minutes and then 150V for 60 minutes. […] The signal was detected using the ECL system (Thermo-34078 and -34096) and imaged on the ImageQuant LAS400 imager.
To understand the potential mechanisms responsible for EZH2i synergy observed with chemotherapy agents, we assessed the effects of Compound 1 treatment on SLFN11 expression, a sensitizer to DNA damaging agents. Several SCLC cell lines were treated with 500 nM of Compound 1 for 7 days and changes in SLFN11 protein levels were assessed using western blotting according to the methodology described above.

COc1cc(C)[nH]c(=O)c1CN1CCc2c(Cl)cc([C@H](OC)C3COC3)c(Cl)c2C1=O [Compound 1, 5,8-dichloro-2-[(4-methoxy-6-methyl-2-oxo-1,2-dihydro-pyridin-3-yl)methyl]-7-[(R)-methoxy(oxetan-3-yl)methyl]-3,4-dihydroisoquinolin-1(2H)-one]
IC50 [1]: 109 nM
inhibition at 300 mg/kg [2]: 96%
inhibition at 300 mg/kg [3]: 82%
SLFN11 protein expression [4]: strong induction of SLFN11 expression

From US11529344B2, “EZH2 inhibitor combination therapies” (Pfizer Inc., priority 2017, dated 2022)
